The numbers were not newly measured in patent US20210123868A1, “REAGENT COMPOSITION FOR PH MEASUREMENT” (MIURA CO., LTD., priority 2018, published 2021), which cites them from elsewhere.

The conditions of the data set: value at 25° C.

Turning to `Cc1c(C2(c3cc(Br)c(O)c(Br)c3C)OS(=O)(=O)c3ccccc32)cc(Br)c(O)c1Br` [bromocresol green], the “acid dissociation constant (pKa)” value is reported as 4.7.

For alizarin yellow, the “acid dissociation constant (pKa)” value is 11.06.

Take `Cc1cc(C2(c3cc(C)c(O)c(Br)c3)OS(=O)(=O)c3ccccc32)cc(Br)c1O` [bromocresol purple]: the “acid dissociation constant (pKa)” value is 6.3.
